# Source: ChEMBL document CHEMBL4330132, “5-Keto-3-cyano-2,4-diaminothiophenes as selective maternal embryonic leucine zipper kinase inhibitors” (Bioorg Med Chem Lett, 2019)
# Key:
# [1] = target: Serine/threonine-protein kinase PAK 3 (Homo sapiens) (UniProt O75914); test: Binding affinity to wild-type human full length PAK3 (M1 to R544 residues) expressed in bacterial expression system assessed as residual binding level at 1 uM by Kinomescan method relative to control
# [2] = test system: Phosphatidylinositol 4,5-bisphosphate 3-kinase catalytic subunit alpha isoform (Homo sapiens), P42336 [H1047Y]; test: Binding affinity to human partial length PIK3CA H1047Y mutant (R108 to N1068 residues) expressed in mammalian expression system assessed as residual binding level at 1 uM by Kinomescan method relative to control
# [3] = target: Calcium/calmodulin-dependent protein kinase type II subunit gamma (Homo sapiens) (UniProt Q13555); test: Binding affinity to wild-type human partial length CAMK2G (R9 to A303 residues) expressed in bacterial expression system assessed as residual binding level at 1 uM by Kinomescan method relative to control
# [4] = test system: Tyrosine-protein kinase ABL1 (Homo sapiens), P00519 [Y253F]; test: Binding affinity to human phosphorylated ABL1 Y253F mutant (S229 to K512 residues) expressed in mammalian expression system assessed as residual binding level at 1 uM by Kinomescan method relative to control
# [5] = target: Platelet-derived growth factor receptor alpha (Homo sapiens) (UniProt P16234); test: Binding affinity to wild-type human partial length PDGFRA (V575 to D1002 residues) expressed in mammalian expression system assessed as residual binding level at 1 uM by Kinomescan method relative to control
# [6] = target: Serine/threonine-protein kinase Nek9 (Homo sapiens) (UniProt Q8TD19); test: Binding affinity to wild-type human partial length NEK9 (P32 to R328 residues) expressed in bacterial expression system assessed as residual binding level at 1 uM by Kinomescan method relative to control
# [7] = target: Atypical kinase COQ8A, mitochondrial (Homo sapiens) (UniProt Q8NI60); test: Binding affinity to wild-type human full length ADCK3 (M280 to Q647 residues) expressed in bacterial expression system assessed as residual binding level at 1 uM by Kinomescan method relative to control
# [8] = target: Cyclin-dependent kinase-like 1 (Homo sapiens) (UniProt Q00532); test: Binding affinity to wild-type human full length CDKL1 (M1 to I358 residues) expressed in mammalian expression system assessed as residual binding level at 1 uM by Kinomescan method relative to control
# [9] = target: Serine/threonine-protein kinase MARK1 (Homo sapiens) (UniProt Q9P0L2); test: Binding affinity to wild-type human partial length MARK1 (Q30 to T341 residues) expressed in bacterial expression system assessed as residual binding level at 1 uM by Kinomescan method relative to control
# [10] = target: Protein kinase C iota type (Homo sapiens) (UniProt P41743); test: Binding affinity to wild-type human partial length PRKCI (H215 to V587 residues) expressed in mammalian expression system assessed as residual binding level at 1 uM by Kinomescan method relative to control
# [11] = target: Tyrosine-protein kinase Lyn (Homo sapiens) (UniProt P07948); test: Binding affinity to wild-type human partial length LYN (C219 to Q511 residues) expressed in bacterial expression system assessed as residual binding level at 1 uM by Kinomescan method relative to control
# [12] = target: Serine/threonine-protein kinase B-raf (Homo sapiens) (UniProt P15056); test: Binding affinity to wild-type human partial length BRAF (S429 to E741 residues) expressed in mammalian expression system assessed as residual binding level at 1 uM by Kinomescan method relative to control
# [13] = test system: Mast/stem cell growth factor receptor Kit (Homo sapiens), P10721 [D816V]; test: Binding affinity to human partial length KIT D816V mutant (I571 to D952 residues) expressed in bacterial expression system assessed as residual binding level at 1 uM by Kinomescan method relative to control
# [14] = target: Protein kinase C theta type (Homo sapiens) (UniProt Q04759); test: Binding affinity to wild-type human partial length PRKCQ (L350 to S706 residues) expressed in bacterial expression system assessed as residual binding level at 1 uM by Kinomescan method relative to control
# [15] = test system: Mast/stem cell growth factor receptor Kit (Homo sapiens), P10721 [V559D,T670I]; test: Binding affinity to human partial length KIT V559D/T670I double mutant (Y545 to D952 residues) expressed in bacterial expression system assessed as residual binding level at 1 uM by Kinomescan method relative to control
# [16] = target: AP2-associated protein kinase 1 (Homo sapiens) (UniProt Q2M2I8); test: Binding affinity to human wild-type AAK1 (G25 to L333 residues) expressed in bacterial expression system assessed as residual binding level at 1 uM by Kinomescan method relative to control
# [17] = target: Dual specificity testis-specific protein kinase 1 (Homo sapiens) (UniProt Q15569); test: Binding affinity to wild-type human full length TESK1 (R37 to S626 residues) expressed in bacterial expression system assessed as residual binding level at 1 uM by Kinomescan method relative to control
# [18] = target: Serine/threonine-protein kinase 32A (Homo sapiens) (UniProt Q8WU08); test: Binding affinity to wild-type human full length YANK1 (M1 to L396 residues) expressed in mammalian expression system assessed as residual binding level at 1 uM by Kinomescan method relative to control
# [19] = test system: Tyrosine-protein kinase ABL1 (Homo sapiens), P00519 [T315I]; test: Binding affinity to human non-phosphorylated ABL1 T315I mutant (S229 to K512 residues) expressed in mammalian expression system assessed as residual binding level at 1 uM by Kinomescan method relative to control
# [20] = target: Wee1-like protein kinase 2 (Homo sapiens) (UniProt P0C1S8); test: Binding affinity to wild-type human partial length WEE2 (M204 to K492 residues) expressed in bacterial expression system assessed as residual binding level at 1 uM by Kinomescan method relative to control
# [21] = target: Casein kinase I isoform gamma-3 (Homo sapiens) (UniProt Q9Y6M4); test: Binding affinity to wild-type human full length CSNK1G3 (M1 to K447 residues) expressed in bacterial expression system assessed as residual binding level at 1 uM by Kinomescan method relative to control
# [22] = test system: Tyrosine-protein kinase ABL1 (Homo sapiens), P00519 [F317L]; test: Binding affinity to human phosphorylated ABL1 F317L mutant (S229 to K512 residues) expressed in mammalian expression system assessed as residual binding level at 1 uM by Kinomescan method relative to control
# [23] = target: Mitogen-activated protein kinase kinase kinase 10 (Homo sapiens) (UniProt Q02779); test: Binding affinity to wild-type human partial length MLK2 (V52 to W380 residues) expressed in bacterial expression system assessed as residual binding level at 1 uM by Kinomescan method relative to control
# [24] = test system: Receptor-type tyrosine-protein kinase FLT3 (Homo sapiens), P36888 [UNDEFINED MUTATION]; test: Binding affinity to human partial length FLT3 ITD mutant expressed in bacterial expression system assessed as residual binding level at 1 uM by Kinomescan method relative to control
# Sequence of Dual specificity testis-specific protein kinase 1 (Homo sapiens) (Q15569 whole entry, looked up, the tested form may be a part): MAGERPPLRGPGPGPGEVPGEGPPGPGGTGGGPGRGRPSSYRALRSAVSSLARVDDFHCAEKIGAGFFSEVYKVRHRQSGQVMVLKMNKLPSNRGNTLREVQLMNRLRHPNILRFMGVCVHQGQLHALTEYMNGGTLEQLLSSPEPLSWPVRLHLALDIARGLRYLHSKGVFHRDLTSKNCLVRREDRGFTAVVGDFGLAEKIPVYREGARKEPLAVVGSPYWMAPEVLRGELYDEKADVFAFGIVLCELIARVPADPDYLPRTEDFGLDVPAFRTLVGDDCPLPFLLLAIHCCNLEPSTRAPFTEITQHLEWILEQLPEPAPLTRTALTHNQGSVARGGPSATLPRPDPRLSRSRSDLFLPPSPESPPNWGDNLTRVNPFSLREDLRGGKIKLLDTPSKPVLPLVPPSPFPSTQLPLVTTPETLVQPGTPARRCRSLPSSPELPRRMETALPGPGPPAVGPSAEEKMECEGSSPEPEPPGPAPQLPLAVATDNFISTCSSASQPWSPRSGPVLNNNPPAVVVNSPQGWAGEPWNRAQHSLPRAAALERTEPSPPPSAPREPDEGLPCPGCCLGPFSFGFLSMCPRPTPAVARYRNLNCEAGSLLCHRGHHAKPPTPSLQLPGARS
# Sequence of Platelet-derived growth factor receptor alpha (Homo sapiens) (P16234 whole entry, the tested form may be a part): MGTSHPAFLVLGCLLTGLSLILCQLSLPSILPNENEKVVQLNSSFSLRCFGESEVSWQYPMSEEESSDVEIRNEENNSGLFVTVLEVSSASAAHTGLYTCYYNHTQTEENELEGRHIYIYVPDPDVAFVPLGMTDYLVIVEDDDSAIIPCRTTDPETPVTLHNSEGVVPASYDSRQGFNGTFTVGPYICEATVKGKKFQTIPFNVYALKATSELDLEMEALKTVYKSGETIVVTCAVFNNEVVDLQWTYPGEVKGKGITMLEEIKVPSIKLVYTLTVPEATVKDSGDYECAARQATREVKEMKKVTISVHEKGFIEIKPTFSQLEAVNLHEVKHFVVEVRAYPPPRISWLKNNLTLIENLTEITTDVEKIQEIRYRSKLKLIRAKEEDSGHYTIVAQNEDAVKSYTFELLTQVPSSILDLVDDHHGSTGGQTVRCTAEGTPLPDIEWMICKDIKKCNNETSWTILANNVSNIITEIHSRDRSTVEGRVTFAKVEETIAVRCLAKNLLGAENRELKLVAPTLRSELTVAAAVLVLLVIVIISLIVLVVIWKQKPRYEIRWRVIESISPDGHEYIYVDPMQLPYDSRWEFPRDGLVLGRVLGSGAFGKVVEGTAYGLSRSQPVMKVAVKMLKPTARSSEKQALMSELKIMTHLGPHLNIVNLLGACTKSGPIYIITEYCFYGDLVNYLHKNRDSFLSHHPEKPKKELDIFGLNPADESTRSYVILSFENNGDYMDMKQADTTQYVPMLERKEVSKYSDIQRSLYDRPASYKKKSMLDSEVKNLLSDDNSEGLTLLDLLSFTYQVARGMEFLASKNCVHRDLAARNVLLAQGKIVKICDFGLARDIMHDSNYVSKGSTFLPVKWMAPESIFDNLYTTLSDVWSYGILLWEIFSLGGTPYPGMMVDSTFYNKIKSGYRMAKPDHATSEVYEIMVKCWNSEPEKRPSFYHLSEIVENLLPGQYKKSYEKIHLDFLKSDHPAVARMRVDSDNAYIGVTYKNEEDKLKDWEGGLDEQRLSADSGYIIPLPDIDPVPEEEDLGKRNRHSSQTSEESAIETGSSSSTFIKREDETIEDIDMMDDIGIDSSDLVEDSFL
# Sequence of Mast/stem cell growth factor receptor Kit (Homo sapiens), P10721 [D816V] (P10721 whole entry D816V, the tested form may be a part): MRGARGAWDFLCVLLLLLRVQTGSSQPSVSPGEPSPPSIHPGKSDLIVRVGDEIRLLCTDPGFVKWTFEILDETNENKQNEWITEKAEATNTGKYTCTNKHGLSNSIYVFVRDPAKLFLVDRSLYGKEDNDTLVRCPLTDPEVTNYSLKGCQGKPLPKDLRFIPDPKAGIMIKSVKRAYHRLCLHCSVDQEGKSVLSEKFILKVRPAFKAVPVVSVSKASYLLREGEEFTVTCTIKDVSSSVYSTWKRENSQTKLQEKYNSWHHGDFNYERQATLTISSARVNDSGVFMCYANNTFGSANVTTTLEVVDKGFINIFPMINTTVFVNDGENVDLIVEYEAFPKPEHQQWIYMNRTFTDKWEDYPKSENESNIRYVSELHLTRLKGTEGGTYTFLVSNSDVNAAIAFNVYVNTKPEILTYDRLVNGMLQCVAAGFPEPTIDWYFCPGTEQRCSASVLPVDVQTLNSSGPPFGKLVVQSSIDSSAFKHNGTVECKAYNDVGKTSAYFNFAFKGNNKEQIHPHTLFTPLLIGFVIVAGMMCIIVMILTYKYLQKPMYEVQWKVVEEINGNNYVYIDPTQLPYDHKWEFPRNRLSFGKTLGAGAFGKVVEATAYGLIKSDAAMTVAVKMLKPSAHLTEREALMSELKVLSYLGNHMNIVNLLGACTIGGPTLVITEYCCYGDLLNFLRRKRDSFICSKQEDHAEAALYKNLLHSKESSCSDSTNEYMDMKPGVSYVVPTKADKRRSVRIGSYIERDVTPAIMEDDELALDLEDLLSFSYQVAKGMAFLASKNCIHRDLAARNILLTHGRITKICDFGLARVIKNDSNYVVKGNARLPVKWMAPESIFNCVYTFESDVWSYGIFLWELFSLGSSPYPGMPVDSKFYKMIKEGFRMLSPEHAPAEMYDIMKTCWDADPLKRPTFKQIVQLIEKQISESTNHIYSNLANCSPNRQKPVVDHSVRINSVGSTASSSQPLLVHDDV
# Sequence of Casein kinase I isoform gamma-3 (Homo sapiens) (Q9Y6M4 whole entry, looked up, the tested form may be a part, canonical isoform): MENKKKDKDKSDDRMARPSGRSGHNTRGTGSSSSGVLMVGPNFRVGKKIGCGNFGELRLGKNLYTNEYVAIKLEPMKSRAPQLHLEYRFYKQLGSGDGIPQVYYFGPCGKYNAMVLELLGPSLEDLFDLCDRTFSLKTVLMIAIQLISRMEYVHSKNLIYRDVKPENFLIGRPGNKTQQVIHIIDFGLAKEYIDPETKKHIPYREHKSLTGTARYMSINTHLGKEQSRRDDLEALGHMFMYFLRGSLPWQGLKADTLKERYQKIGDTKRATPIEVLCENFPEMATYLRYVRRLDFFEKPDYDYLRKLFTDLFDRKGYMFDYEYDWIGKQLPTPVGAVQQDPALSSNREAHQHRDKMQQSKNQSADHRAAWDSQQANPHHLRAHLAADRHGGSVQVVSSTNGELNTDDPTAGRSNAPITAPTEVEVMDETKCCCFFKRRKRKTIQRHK
# Sequence of Serine/threonine-protein kinase MARK1 (Homo sapiens) (Q9P0L2 whole entry, looked up, the tested form may be a part): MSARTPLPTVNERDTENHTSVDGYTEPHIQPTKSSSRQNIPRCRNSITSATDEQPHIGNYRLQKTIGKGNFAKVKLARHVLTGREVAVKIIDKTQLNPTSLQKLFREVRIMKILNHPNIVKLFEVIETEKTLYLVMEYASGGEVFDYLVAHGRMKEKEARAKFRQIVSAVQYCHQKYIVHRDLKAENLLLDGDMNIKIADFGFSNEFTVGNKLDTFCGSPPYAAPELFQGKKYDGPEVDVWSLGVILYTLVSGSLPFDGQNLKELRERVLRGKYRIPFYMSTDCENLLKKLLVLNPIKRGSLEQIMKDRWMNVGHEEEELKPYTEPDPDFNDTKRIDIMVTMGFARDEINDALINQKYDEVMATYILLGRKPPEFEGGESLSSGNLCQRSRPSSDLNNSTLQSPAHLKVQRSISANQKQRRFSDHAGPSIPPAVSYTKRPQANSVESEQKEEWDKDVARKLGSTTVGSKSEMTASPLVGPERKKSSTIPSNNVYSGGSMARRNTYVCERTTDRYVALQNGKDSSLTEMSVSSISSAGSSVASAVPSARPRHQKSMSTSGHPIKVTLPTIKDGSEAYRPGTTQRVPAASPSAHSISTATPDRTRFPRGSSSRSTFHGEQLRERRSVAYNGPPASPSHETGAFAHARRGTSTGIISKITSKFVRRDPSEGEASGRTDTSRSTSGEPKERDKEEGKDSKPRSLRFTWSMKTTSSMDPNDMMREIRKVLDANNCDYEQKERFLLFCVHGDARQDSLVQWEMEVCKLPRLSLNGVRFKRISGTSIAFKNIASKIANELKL
# Sequence of Serine/threonine-protein kinase Nek9 (Homo sapiens) (Q8TD19 whole entry, the tested form may be a part): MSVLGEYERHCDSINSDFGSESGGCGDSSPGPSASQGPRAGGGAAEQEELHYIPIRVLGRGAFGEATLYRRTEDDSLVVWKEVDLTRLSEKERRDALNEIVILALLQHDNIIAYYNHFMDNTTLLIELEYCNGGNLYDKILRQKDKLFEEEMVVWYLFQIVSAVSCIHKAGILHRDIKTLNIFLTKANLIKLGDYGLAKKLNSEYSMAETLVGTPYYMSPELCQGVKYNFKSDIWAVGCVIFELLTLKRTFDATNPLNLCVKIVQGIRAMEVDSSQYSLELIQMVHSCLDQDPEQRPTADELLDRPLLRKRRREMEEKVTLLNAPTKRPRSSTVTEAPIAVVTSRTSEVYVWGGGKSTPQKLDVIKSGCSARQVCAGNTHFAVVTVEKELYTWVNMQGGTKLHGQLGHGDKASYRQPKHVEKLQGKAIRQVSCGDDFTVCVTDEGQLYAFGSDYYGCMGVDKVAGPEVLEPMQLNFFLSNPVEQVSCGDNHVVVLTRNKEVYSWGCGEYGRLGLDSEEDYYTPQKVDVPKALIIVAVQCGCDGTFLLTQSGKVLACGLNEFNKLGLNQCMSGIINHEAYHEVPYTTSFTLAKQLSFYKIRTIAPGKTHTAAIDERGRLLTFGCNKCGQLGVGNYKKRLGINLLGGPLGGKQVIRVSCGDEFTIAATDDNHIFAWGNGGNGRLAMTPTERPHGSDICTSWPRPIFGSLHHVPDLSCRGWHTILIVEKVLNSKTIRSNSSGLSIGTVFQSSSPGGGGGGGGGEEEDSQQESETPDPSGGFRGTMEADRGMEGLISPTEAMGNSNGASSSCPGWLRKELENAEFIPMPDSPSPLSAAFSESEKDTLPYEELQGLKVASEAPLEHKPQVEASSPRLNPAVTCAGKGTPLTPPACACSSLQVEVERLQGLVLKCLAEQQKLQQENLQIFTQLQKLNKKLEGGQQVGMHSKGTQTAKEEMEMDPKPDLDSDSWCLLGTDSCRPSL
smiles,measurement,setting,value
CC(C)Nc1sc(C(=O)c2ccc(Cl)s2)c(N)c1C#N,Activity,[1],95%
same,Activity,[2],100%
same,Activity,[3],74%
same,Activity,[4],100%
same,Activity,[5],82%
same,Activity,[6],85%
same,Activity,[7],93%
same,Activity,[8],100%
same,Activity,[9],67%
same,Activity,[10],100%
same,Activity,[11],80%
same,Activity,[12],89%
same,Activity,[13],55%
same,Activity,[14],57%
same,Activity,[15],87%
same,Activity,[16],16%
same,Activity,[17],94%
same,Activity,[18],98%
same,Activity,[19],100%
same,Activity,[20],94%
same,Activity,[21],77%
same,Activity,[22],100%
same,Activity,[23],100%
same,Activity,[24],77%
